Counter-ions that a name gives are not always drawn.
Tests used:
[1] = molecular target: T1, human jejunal NK2 receptor (Homo sapiens, UniProt P21452); assay: Antagonism of iodinated tachykinin binding to NK2 receptors (Example A)
T1 construct: expressed in transfected cells; host or cells: HSKR-1 cells (mouse 3T3 fibroblasts)
T1 sequence (P21452 1-398): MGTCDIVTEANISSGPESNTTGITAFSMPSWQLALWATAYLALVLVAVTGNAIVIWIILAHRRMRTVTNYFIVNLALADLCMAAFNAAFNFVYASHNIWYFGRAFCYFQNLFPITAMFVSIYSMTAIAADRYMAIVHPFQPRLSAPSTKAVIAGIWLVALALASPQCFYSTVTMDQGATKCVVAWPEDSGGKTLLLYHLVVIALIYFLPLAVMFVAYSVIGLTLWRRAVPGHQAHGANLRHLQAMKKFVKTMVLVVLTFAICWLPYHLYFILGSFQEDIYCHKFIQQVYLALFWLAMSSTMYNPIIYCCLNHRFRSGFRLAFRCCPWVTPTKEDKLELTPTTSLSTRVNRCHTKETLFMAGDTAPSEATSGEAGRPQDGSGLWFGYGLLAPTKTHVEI
Experimental: (§1) One skilled in the art can determine the NK1 receptor and NK2 receptor affinity in vitro as follows. The NK1 receptor affinity of tachykinin antagonists is evaluated in guinea pig lungs (Keystone Biologicals, Cleveland, OH) and affinity for the NK2 receptor is evaluated in HSKR-1 cells (which are mouse 3T3 fibroblasts expressing the human jejunal NK2 receptor). Tissues or cells are homogenized with a Polytron in 15 volumes of 50 mM Tris-HC1 buffer (pH 7.4, 4°C) and centrifuged. The pellet is resuspended in Tris-HCl buffer and is centrifuged; the pellet is washed twice by resuspension. The final pellet is resuspended at a concentration of 40 mg/ml for tissues and 20 mg/ml for cells in incubation buffer and remains at room temperature for at least 15 min prior to use. Receptor binding is initiated by addition of 250 ul membrane preparation in duplicate to 0.1 nM of the following radioligands: ^125I-Bolton Hunter Lys-3 labeled substance P and ^125iodohistidyl-1-neurokinin A; in a final volume of 500 ul of buffer containing 50 mM Tris-HCl (pH 7.4 at room temperature), 0.1% bovine serum albumin, 2 mM mangenese chloride, 40 ug/ml bacitracin, 4 µg/ml leupeptin and chymostatin, 10 µM thiorphan and various doses of the putative tachykinin antagonists. Incubations are performed at room temperature for 90 min (NK1 receptor assays) or 2 hr (NK2 receptor assay); binding is terminated by addition of 50 mM Tris-HCl buffer (pH 7.4, 4°C) and filtration under vacuum through GF/B filters presoaked with 0.1% polyethyleneimine (NK1 receptor assays) or 0.5% bovine serum albumin (NK2 receptor assay). Filter bound radioactivity is quantitated in a gamma counter. Nonspecific binding is defined as binding in the presence of 1 µM substance P or neurokinin A. Specific binding is calculated by subtracting nonspecific binding from total binding. Competition of iodinated SP or NKA binding by test compounds or standards is expressed as a percentage of this maximum binding. IC50 values (concentration required to inhibit 50% of receptor binding) are generated for each of the test compounds by nonlinear regression using an iterative curve fitting program (GraphPAD Inplot, San Diego, CA).
(§2) Tackykinin receptor binding (IC50 values) for representative compounds of the present invention is found in Table 1. The values in Table 1 were determined by the method of present Example A and represent the mean of several experiments, except where noted. […]

NK1 receptor = molecular target: T2, NK1 receptor (Cavia porcellus, UniProt P30547); assay: Antagonism of iodinated tachykinin binding to NK1 receptors (Example A); parameters: species or system guinea pig
T2 construct: evaluated in guinea pig lungs (Keystone Biologicals, Cleveland, OH); tissue Keystone Biologicals, Cleveland, OH; host or cells: guinea pig lung membranes
Experimental: as §1, §2

T2 sequence (P30547 whole entry): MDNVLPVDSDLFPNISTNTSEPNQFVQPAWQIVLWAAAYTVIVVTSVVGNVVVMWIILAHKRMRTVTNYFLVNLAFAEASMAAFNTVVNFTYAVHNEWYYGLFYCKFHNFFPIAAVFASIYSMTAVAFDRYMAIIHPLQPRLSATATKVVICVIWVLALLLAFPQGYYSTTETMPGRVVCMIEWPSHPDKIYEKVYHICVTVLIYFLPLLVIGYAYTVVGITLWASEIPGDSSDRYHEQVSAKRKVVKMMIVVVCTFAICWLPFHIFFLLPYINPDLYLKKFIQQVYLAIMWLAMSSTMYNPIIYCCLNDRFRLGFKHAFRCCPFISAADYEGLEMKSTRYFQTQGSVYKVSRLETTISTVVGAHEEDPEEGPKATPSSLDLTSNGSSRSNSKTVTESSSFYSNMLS

Structure (SMILES)	IC50 [1] [µM]	IC50 (NK1 receptor) [µM]
CCOC(=O)CN1CCN(C(=O)C2(c3ccccc3)CCN(CC[C@]3(c4ccc(Cl)c(Cl)c4)CCN(C(=O)c4cc(OC)c(OC)c(OC)c4)C3)CC2)CC1 [Example 8.3.1, (R)-1-(3,4,5-trimethoxvbenzoyl)-3-(2-(4-phenyl-4-((4-carboethoxymethylpiperazin-1-yl)carboxamido)piperidine)ethyl)-3-(3,4-dichlorophenyl)pyrrolidine hydrochloric acid salt]	0.00241	0.0077
COc1cc(C(=O)N2CC[C@](CCN3CCC(C(=O)N4CCN(CC(=O)O)CC4)(c4cccnc4)CC3)(c3ccc(Cl)c(Cl)c3)C2)cc(OC)c1OC [Example 6.1, (R)-1-(3,4,5-trimethoxybenzoyl)-3-(2-(4-(pyrid-3-yl)-4-((4-carboxymethylpiperazin-1-yl)carboxamido)piperidin-1-yl)ethyl)-3-(3,4-dichlorophenyl)pyrrolidine hydrochloric acid salt]	0.0147	0.0161
